This is an account of results in patent publication US20110081315A1, “NOVEL MACROCYCLIC INHIBITORS OF HEPATITIS C VIRUS REPLICATION” (INTERMUNE, INC., priority 2009, published 2011).

The subject of one test is hepatitis C replicon. As to the kind of experiment: hepatitis C replicon EC50 assay. The settings on record: Hepatitis C virus; hepatitis C replicon; read-out: EC50. It is filed as cell-based. From the text:
(§1) NS3-NS4 inhibition activity can be determined using known assay methods. For example, NS3/NS4 complexes may be formed and inhibitory concentrations of test compounds determined as described in U.S. Patent Application Publication Number 2007/0054842 paragraph numbers 1497-1509, which is incorporated herein by reference in its entirety. Similarly, hepatitis C replicon EC50 may be determined using known assay methods such as described in U.S. Patent Application Publication Number 2007/0054842 paragraph numbers 1510-1515, which is incorporated herein by reference in its entirety. Assays may be conducted at ambient temperature (23° C.) in assay buffer containing 50 mM Tris-HCl, pH 7.5, 15% glycerol, 0.6 mM Lauryldimethylamine Oxide (LDAO), 25 μM NS4A peptide, and 10 mM Dithiothreitol (DTT).
(In antiviral work, replicon cells carry a viral genome segment that copies itself.)

The target of the next test is NS3/NS4 complexes (Hepatitis C virus genotype 1a, UniProt P27958). As to the kind of experiment: NS3/NS4 inhibition assay (IC50). It is filed as biochemical. The note with it: NS3/NS4 activity; 23° C., 25 μM NS4A peptide.
NS3/NS4 complexes, sequence (P27958 1027-1657, one chain of several): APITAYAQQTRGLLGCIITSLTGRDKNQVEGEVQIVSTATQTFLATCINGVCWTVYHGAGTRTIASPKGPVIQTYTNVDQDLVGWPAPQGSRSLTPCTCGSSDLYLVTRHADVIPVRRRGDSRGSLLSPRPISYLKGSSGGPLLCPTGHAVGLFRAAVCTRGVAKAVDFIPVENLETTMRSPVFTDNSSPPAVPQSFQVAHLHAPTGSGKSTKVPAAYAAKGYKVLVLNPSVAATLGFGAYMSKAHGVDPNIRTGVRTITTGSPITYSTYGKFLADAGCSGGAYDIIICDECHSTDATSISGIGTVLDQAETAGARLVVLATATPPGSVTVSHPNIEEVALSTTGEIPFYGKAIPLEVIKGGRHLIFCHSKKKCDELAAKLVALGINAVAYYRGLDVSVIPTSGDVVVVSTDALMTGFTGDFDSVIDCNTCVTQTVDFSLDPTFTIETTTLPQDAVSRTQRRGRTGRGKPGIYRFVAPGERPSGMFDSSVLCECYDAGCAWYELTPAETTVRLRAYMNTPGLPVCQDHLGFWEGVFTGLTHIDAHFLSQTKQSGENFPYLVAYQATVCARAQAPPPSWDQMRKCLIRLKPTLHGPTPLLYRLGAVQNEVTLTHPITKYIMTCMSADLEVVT
Source text: as §1

Each structure is given as a SMILES string.

Broadly, the EC50 is the concentration that produces a half-maximal response. As a reminder, the IC50 is the concentration needed to halve the response being measured. Low readings indicate greater potency in that assay, high ones weaker potency in that assay.

In the case of `CC(C)n1c(O[C@@H]2C[C@H]3C(=O)N[C@]4(C(=O)NS(=O)(=O)N(C)C)C[C@H]4/C=C\CCCCC[C@H](NC(=O)OC(C)(C)C)C(=O)N3C2)nc2c(-c3ccccc3)cccc21` [Compound 210], in the test on hepatitis C replicon, the EC50 is less than 10 nM. The IC50 at NS3/NS4 complexes was less than 10 nM.
With `COc1ccc2c(O[C@@H]3C[C@H]4C(=O)N[C@]5(C(=O)NS(=O)(=O)C6(C)CC6)C[C@H]5/C=C\CCCCC[C@H](Nc5cccc(C(=O)N6CCN(c7ccccn7)CC6)c5)C(=O)N4C3)cc(-c3nc(C(C)C)cs3)nc2c1C` [Compound 126], the EC50 with hepatitis C replicon is less than 10 nM. For the same molecule, the IC50 against NS3/NS4 complexes is less than 10 nM.
As to `CC(C)n1c(O[C@@H]2C[C@H]3C(=O)N[C@]4(C(=O)NS(=O)(=O)N(C)C)C[C@H]4/C=C\CCCCC[C@H](NC(=O)OC(C)(C)C)C(=O)N3C2)nc2c(NC(=O)NCc3ccccc3)cccc21` [Compound 1423], the EC50 in the test with hepatitis C replicon was less than 10 nM. At NS3/NS4 complexes, this molecule returned a half-maximal inhibitory concentration (IC50) of less than 10 nM.
On to `CC(C)n1c(O[C@@H]2C[C@H]3C(=O)N[C@]4(C(=O)NS(=O)(=O)N(C)C)C[C@H]4/C=C\CCCCC[C@H](NC(=O)OC(C)(C)C)C(=O)N3C2)nc2c(-c3csc(N4CCCCC4)n3)cccc21` [Compound 1742], for which, in the test with hepatitis C replicon, the EC50 lay within 10 to 100 nM. This molecule also returned an IC50 on NS3/NS4 complexes of less than 10 nM.
On to `Cc1cc(F)cc(-c2cccc3c2nc(O[C@@H]2C[C@H]4C(=O)N[C@]5(C(=O)NS(=O)(=O)C6(C)CC6)C[C@H]5/C=C\CCCCC[C@H](Nc5ccccc5)C(=O)N4C2)n3C(C)C)c1` [Compound 245], for which the EC50 in the test on hepatitis C replicon is greater than 100 nM. The molecule also showed an IC50 at NS3/NS4 complexes of less than 10 nM.
The corresponding values for `CC(C)n1c(O[C@@H]2C[C@H]3C(=O)N[C@]4(C(=O)NS(=O)(=O)N(C)C)C[C@H]4/C=C\CCCCC[C@H](NC(=O)OC(C)(C)C)C(=O)N3C2)nc2c(C(F)(F)F)cccc21` [Compound 291] are less than 10 nM and less than 10 nM.
Regarding `CC(C)n1c(O[C@@H]2C[C@H]3C(=O)N[C@]4(C(=O)NS(=O)(=O)N(C)C)C[C@H]4/C=C\CCCCC[C@H](NC(=O)OC(C)(C)C)C(=O)N3C2)nc2c(-c3nc(C4CCC4)cs3)cccc21` [Compound 1766], the EC50 in the test with hepatitis C replicon was less than 10 nM. Further, the IC50 against NS3/NS4 complexes was less than 10 nM.
Turning to `CC(C)n1c(O[C@@H]2C[C@H]3C(=O)N[C@]4(C(=O)NS(=O)(=O)N(C)C)C[C@H]4/C=C\CCCCC[C@H](NC(=O)OC(C)(C)C)C(=O)N3C2)nc2c(-c3nc(Cc4cccc(Cl)c4)cs3)cccc21` [Compound 1761], in the test with hepatitis C replicon, the EC50 lay within 10 to 100 nM. Moreover, at NS3/NS4 complexes, the IC50 is less than 10 nM.
In the case of `CC(C)n1c(O[C@@H]2C[C@H]3C(=O)N[C@]4(C(=O)NS(=O)(=O)N(C)C)C[C@H]4/C=C\CCCCC[C@H](NC(=O)OC(C)(C)C)C(=O)N3C2)nc2c(C(=O)O)cccc21` [Compound 276], the EC50 in the test on hepatitis C replicon was greater than 100 nM. On NS3/NS4 complexes, this molecule had an IC50 of less than 10 nM.
The like results for `CC1(S(=O)(=O)NC(=O)[C@@]23C[C@H]2/C=C\CCCCC[C@H](Nc2ccccc2)C(=O)N2C[C@H](n4nnc(-c5ccccc5)n4)C[C@H]2C(=O)N3)CC1` [Compound 802] were, in that order, greater than 100 nM and less than 10 nM.
The like results for `Cn1cnc2cc(O[C@@H]3C[C@H]4C(=O)N[C@]5(C(=O)NS(=O)(=O)C6(C)CC6)C[C@H]5/C=C\CCCCC[C@H](NC(=O)OC(C)(C)C)C(=O)N4C3)ccc21` [Compound 295] were, in that order, greater than 100 nM and less than 10 nM.
The corresponding values for `CC(C)n1c(O[C@@H]2C[C@H]3C(=O)N[C@]4(C(=O)NS(=O)(=O)N(C)C)C[C@H]4/C=C\CCCCC[C@H](NC(=O)OC(C)(C)C)C(=O)N3C2)nc2c(-c3nc(-c4ccccc4)cs3)cccc21` [Compound 233] are 10 to 100 nM and less than 10 nM.
As to `COc1ccc2c(O[C@@H]3C[C@H]4C(=O)N[C@]5(C(=O)NS(=O)(=O)C6(C)CC6)C[C@H]5/C=C\CCCCC[C@H](Nc5cccc(C(C)(C)C)c5)C(=O)N4C3)cc(-c3nc(C(C)C)cs3)nc2c1C` [Compound 129], the EC50 in the test on hepatitis C replicon was in the range of 10 to 100 nM. This molecule also yielded an IC50 on NS3/NS4 complexes of less than 10 nM.
The like results for `CC(C)n1c(O[C@@H]2C[C@H]3C(=O)N[C@]4(C(=O)NS(=O)(=O)C5(C)CC5)C[C@H]4/C=C\CCCCC[C@H](Nc4ccc(F)c(C(F)(F)F)c4)C(=O)N3C2)nc2cncnc21` [Compound 502] were, in that order, 10 to 100 nM and less than 10 nM.
The like results for `CC(C)n1c(O[C@@H]2C[C@H]3C(=O)N[C@]4(C(=O)NS(=O)(=O)C5(C)CC5)C[C@H]4/C=C\CCCCC[C@H](Nc4ccccc4)C(=O)N3C2)nc2c(-c3ccc(F)c(F)c3)cccc21` [Compound 243] were, in that order, greater than 100 nM and less than 10 nM.
The corresponding values for `CC(C)c1csc(-c2cccc3c2nc(O[C@@H]2C[C@H]4C(=O)N[C@]5(C(=O)NS(=O)(=O)C6(C)CC6)C[C@H]5/C=C\CCCCC[C@H](Nc5nccs5)C(=O)N4C2)n3C(C)C)n1` [Compound 1418] are less than 10 nM and less than 10 nM.
Consider `COc1ccc2c(O[C@@H]3C[C@H]4C(=O)N[C@]5(C(=O)NS(=O)(=O)C6(C)CC6)C[C@H]5/C=C\CCCCC[C@H](Nc5ccc(F)c(F)c5)C(=O)N4C3)cc(-c3nc(C(C)C)cs3)nc2c1C` [Compound 1001], for which the EC50 in the test on hepatitis C replicon is less than 10 nM. The half-maximal inhibitory concentration (IC50) at NS3/NS4 complexes is less than 10 nM.
Regarding `COc1ccc2c(O[C@@H]3C[C@H]4C(=O)N[C@]5(C(=O)NS(=O)(=O)C6(C)CC6)C[C@H]5/C=C\CCCCC[C@H](Nc5cccc(C(=O)N6CCN(C(=O)c7ccccc7)CC6)c5)C(=O)N4C3)cc(-c3nc(C(C)C)cs3)nc2c1C` [Compound 115], the EC50 with hepatitis C replicon is less than 10 nM. On NS3/NS4 complexes, this molecule came in with a half-inhibitory concentration (IC50) of less than 10 nM.
As to `Cc1cccc(-c2csc(-c3cccc4c3nc(O[C@@H]3C[C@H]5C(=O)N[C@]6(C(=O)NS(=O)(=O)C7(C)CC7)C[C@H]6/C=C\CCCCC[C@H](NC(=O)OC(C)(C)C)C(=O)N5C3)n4C(C)C)n2)c1` [Compound 1713], the half-maximal effective concentration (EC50) in the test on hepatitis C replicon lay within 10 to 100 nM. This molecule also had an IC50 against NS3/NS4 complexes of less than 10 nM.
For `CC(C)n1c(O[C@@H]2C[C@H]3C(=O)N[C@]4(C(=O)NS(=O)(=O)C5(C)CC5)C[C@H]4/C=C\CCCCC[C@H](NC(=O)OC(C)(C)C)C(=O)N3C2)nc2c(-c3nc(Cc4cc(F)cc(F)c4)cs3)cccc21` [Compound 1722], the EC50 in the test on hepatitis C replicon fell in the range of 10 to 100 nM. This molecule also showed an IC50 on NS3/NS4 complexes of less than 10 nM.
The corresponding values for `CC(C)n1c(O[C@@H]2C[C@H]3C(=O)N[C@]4(C(=O)NS(=O)(=O)C5(C)CC5)C[C@H]4/C=C\CCCCC[C@H](NC(=O)OC(C)(C)C)C(=O)N3C2)nc2c(-c3nc(-c4ccc(F)cc4)cs3)cccc21` [Compound 1711] are less than 10 nM and less than 10 nM.
As for `CC(C)n1c(O[C@@H]2C[C@H]3C(=O)N[C@]4(C(=O)NS(=O)(=O)N(C)C)C[C@H]4/C=C\CCCCC[C@H](NC(=O)OC(C)(C)C)C(=O)N3C2)nc2c(-c3nc(Cc4cccc(F)c4)cs3)cccc21` [Compound 1758], in the test with hepatitis C replicon, the EC50 lay in the range of 10 to 100 nM. Moreover, the IC50 against NS3/NS4 complexes was less than 10 nM.
The corresponding values for `CCN1CCN(C(=O)c2cccc(N[C@H]3CCCCC/C=C\[C@@H]4C[C@@]4(C(=O)NS(=O)(=O)C4(C)CC4)NC(=O)[C@@H]4C[C@@H](Oc5cc(-c6nc(C(C)C)cs6)nc6c(C)c(OC)ccc56)CN4C3=O)c2)CC1` [Compound 112] are less than 10 nM and less than 10 nM.
Take `CC(C)n1c(O[C@@H]2C[C@H]3C(=O)N[C@]4(C(=O)NS(=O)(=O)C5(C)CC5)C[C@H]4/C=C\CCCCC[C@H](Nc4ccccc4)C(=O)N3C2)nc2c(C(N)=O)cccc21` [Compound 268]: the EC50 with hepatitis C replicon is 10 to 100 nM. Further, on NS3/NS4 complexes, the IC50 is less than 10 nM.
With `CC(C)n1c(O[C@@H]2C[C@H]3C(=O)N[C@]4(C(=O)NS(=O)(=O)N(C)C)C[C@H]4/C=C\CCCCC[C@H](NC(=O)OC(C)(C)C)C(=O)N3C2)nc2c(-c3nc(C(C)(C)C)cs3)cccc21` [Compound 232], in the test on hepatitis C replicon, the EC50 was in the range of 10 to 100 nM. This molecule gave an IC50 at NS3/NS4 complexes of less than 10 nM.
Consider `CC1(S(=O)(=O)NC(=O)[C@@]23C[C@H]2/C=C\CCCCC[C@H](Nc2ccccc2)C(=O)N2C[C@H](n4nc(Br)c(-c5ccccc5)n4)C[C@H]2C(=O)N3)CC1` [Compound 1505], for which the EC50 with hepatitis C replicon was greater than 100 nM. The half-maximal inhibitory concentration (IC50) at NS3/NS4 complexes is less than 10 nM.
The corresponding values for `CC(C)c1nc(-c2cccc3c2nc(O[C@@H]2C[C@H]4C(=O)N[C@]5(C(=O)NS(=O)(=O)N(C)C)C[C@H]5/C=C\CCCCC[C@H](NC(=O)OC(C)(C)C)C(=O)N4C2)n3C(C)C)oc1C(C)C` [Compound 1211] are less than 10 nM and less than 10 nM.
The corresponding values for `CN(C)S(=O)(=O)NC(=O)[C@@]12C[C@H]1/C=C\CCCCC[C@H](NC(=O)OC(C)(C)C)C(=O)N1C[C@H](Oc3nc4ccccc4n3C(C)(C)C)C[C@H]1C(=O)N2` [Compound 206] are less than 10 nM and less than 10 nM.
As for `CC(C)n1c(O[C@@H]2C[C@H]3C(=O)N[C@]4(C(=O)NS(=O)(=O)C5(C)CC5)C[C@H]4/C=C\CCCCC[C@H](Nc4ccccc4)C(=O)N3C2)nc2c(Cl)cccc21` [Compound 263], in the test with hepatitis C replicon, the EC50 lay within 10 to 100 nM. Moreover, the IC50 on NS3/NS4 complexes is less than 10 nM.
`CCn1c(O[C@@H]2C[C@H]3C(=O)N[C@]4(C(=O)NS(=O)(=O)N(C)C)C[C@H]4/C=C\CCCCC[C@H](NC(=O)OC(C)(C)C)C(=O)N3C2)nc2c(-c3nc(C(C)C)cs3)cccc21` [Compound 1430]: the EC50 in the test with hepatitis C replicon was 10 to 100 nM. In addition, on NS3/NS4 complexes, the IC50 is less than 10 nM.
The corresponding values for `COc1ccc2c(O[C@@H]3C[C@H]4C(=O)N[C@]5(C(=O)NS(=O)(=O)C6(C)CC6)C[C@H]5/C=C\CCCCC[C@H](NC(=O)N5CCCC5)C(=O)N4C3)cc(-c3nc(C(C)C)cs3)nc2c1C` [Compound 1733] are less than 10 nM and less than 10 nM.
The corresponding values for `COc1ccc2c(O[C@@H]3C[C@H]4C(=O)N[C@]5(C(=O)NS(=O)(=O)C6(C)CC6)C[C@H]5/C=C\CCCCC[C@H](Nc5cccc(C(=O)N6CCN(c7ncccn7)CC6)c5)C(=O)N4C3)cc(-c3nc(C(C)C)cs3)nc2c1C` [Compound 125] are less than 10 nM and less than 10 nM.
